In brackets after ≈: the same amount, converted by molar mass.
How the values were obtained:
Assay type in all cases: functional
[1] = test system: Ruminococcus torques; assay: Antimicrobial activity against Ruminococcus torques by Wadsworth agar dilution method; settings: Mediterraneibacter torques
[2] = test system: Lactobacillus catenaformis; assay: Antimicrobial activity against Lactobacillus catenaformis by Wadsworth agar dilution method; settings: Eggerthia catenaformis
[3] = test system: Clostridium sporogenes; assay: Antimicrobial activity against Clostridium sporogenes by Wadsworth agar dilution method
[4] = test system: Bacteroides stercoris; assay: Antimicrobial activity against Bacteroides stercoris by Wadsworth agar dilution method
[5] = test system: Clostridium tertium; assay: Antimicrobial activity against Clostridium tertium by Wadsworth agar dilution method
[6] = test system: Clostridium lactatifermentans; assay: Antimicrobial activity against Clostridium lactatifermentans by Wadsworth agar dilution method; settings: Anaerotignum lactatifermentans
[7] = test system: Flavonifractor plautii; assay: Antimicrobial activity against Clostridium orbiscindens by Wadsworth agar dilution method
[8] = test system: Clostridium paraputrificum; assay: Antimicrobial activity against Clostridium paraputrificum by Wadsworth agar dilution method
[9] = test system: Collinsella aerofaciens; assay: Antimicrobial activity against Colinsella aerofaciens by Wadsworth agar dilution method
[10] = test system: Bacteroides caccae; assay: Antimicrobial activity against Bacteroides caccae by Wadsworth agar dilution method
[11] = test system: Prevotella corporis; assay: Antimicrobial activity against Prevotella corporis by Wadsworth agar dilution method
[12] = test system: Clostridium symbiosum; assay: Antimicrobial activity against Clostridium symbiosum by Wadsworth agar dilution method
[13] = test system: Blautia producta; assay: Antimicrobial activity against Ruminococcus productus by Wadsworth agar dilution method
[14] = test system: [Clostridium] innocuum; assay: Antimicrobial activity against Clostridium innocuum by Wadsworth agar dilution method
[15] = test system: Porphyromonas asaccharolytica; assay: Antimicrobial activity against Porphyromonas asaccharolyticus by Wadsworth agar dilution method
[16] = test system: Propionibacterium propionicum; assay: Antimicrobial activity against Propionibacterium propionicum by Wadsworth agar dilution method; settings: Arachnia propionica
[17] = test system: Atopobium minutum; assay: Antimicrobial activity against Atopobium minutum by Wadsworth agar dilution method
[18] = test system: Clostridium leptum; assay: Antimicrobial activity against Clostridium leptum by Wadsworth agar dilution method
[19] = test system: Hoylesella loescheii; assay: Antimicrobial activity against Prevotella loescheii by Wadsworth agar dilution method
[20] = test system: Lactobacillus jensenii; assay: Antimicrobial activity against Lactobacillus jensenii by Wadsworth agar dilution method
[21] = test system: Peptostreptococcus anaerobius; assay: Antimicrobial activity against Peptostreptococcus anaerobius by Wadsworth agar dilution method
[22] = test system: Porphyromonas; assay: Antimicrobial activity against Porphyromonas sp. by Wadsworth agar dilution method
[23] = test system: Fusobacterium mortiferum; assay: Antimicrobial activity against Clostridium rectum by Wadsworth agar dilution method
[24] = test system: Ruminococcus flavefaciens; assay: Antimicrobial activity against Ruminococcus flavefaciens by Wadsworth agar dilution method
[25] = test system: Prevotella melaninogenica; assay: Antimicrobial activity against Prevotella melaninogenica by Wadsworth agar dilution method
[26] = test system: Catenibacterium mitsuokai; assay: Antimicrobial activity against Catenibacterium mitsuokai by Wadsworth agar dilution method
[27] = test system: Bacteroides nordii; assay: Antimicrobial activity against Bacteroides nordii by Wadsworth agar dilution method
[28] = Antimicrobial activity against Bifidobacterium pseudocatenulatum by Wadsworth agar dilution method
[29] = test system: Blautia luti; assay: Antimicrobial activity against Ruminococcus luti by Wadsworth agar dilution method
[30] = test system: Desulfovibrio sp.; assay: Antimicrobial activity against Desulfovibrio sp. by Wadsworth agar dilution method
[31] = test system: Clostridium fallax; assay: Antimicrobial activity against Clostridium fallax by Wadsworth agar dilution method
[32] = test system: Clostridium butyricum; assay: Antimicrobial activity against Clostridium butyricum by Wadsworth agar dilution method
[33] = test system: Peptoniphilus harei; assay: Antimicrobial activity against Peptoniphilus harei by Wadsworth agar dilution method
[34] = test system: Holdemania filiformis; assay: Antimicrobial activity against Holdemania filiformis by Wadsworth agar dilution method
[35] = test system: Pseudoramibacter alactolyticus; assay: Antimicrobial activity against Eubacterium alactolyticum by Wadsworth agar dilution method
[36] = test system: Actinomyces viscosus; assay: Antimicrobial activity against Actinomyces viscosus by Wadsworth agar dilution method
[37] = test system: Bilophila wadsworthia; assay: Antimicrobial activity against Bilophila wadsworthia by Wadsworth agar dilution method in presence of 1% pyruvic acid
[38] = test system: Parabacteroides goldsteinii; assay: Antimicrobial activity against Parabacteroides goldsteinii by Wadsworth agar dilution method
[39] = test system: Thomasclavelia ramosa; assay: Antimicrobial activity against Clostridium ramosum by Wadsworth agar dilution method
[40] = test system: Desulfovibrio desulfuricans; assay: Antimicrobial activity against Desulfovibrio desulfuricans by Wadsworth agar dilution method
[41] = test system: Fusobacterium varium; assay: Antimicrobial activity against Fusobacterium varium by Wadsworth agar dilution method
[42] = test system: Anaerococcus prevotii; assay: Antimicrobial activity against Anaerococcus prevotii by Wadsworth agar dilution method
[43] = test system: Eubacterium saburreum; assay: Antimicrobial activity against Eubacterium saburreum by Wadsworth agar dilution method; settings: Lachnoanaerobaculum saburreum
[44] = test system: Clostridium aminobutyricum; assay: Antimicrobial activity against Clostridium aminobutyricum by Wadsworth agar dilution method
[45] = test system: Desulfovibrio fairfieldensis; assay: Antimicrobial activity against Desulfovibrio fairfieldensis by Wadsworth agar dilution method
[46] = test system: Parabacteroides merdae; assay: Antimicrobial activity against Parabacteroides merdae by Wadsworth agar dilution method
[47] = test system: Bifidobacterium breve; assay: Antimicrobial activity against Bifidobacterium breve by Wadsworth agar dilution method

Work on `CN[C@H](CC(C)C)C(=O)N[C@H]1C(=O)N[C@@H](CC(N)=O)C(=O)N[C@H]2C(=O)N[C@H]3C(=O)N[C@H](C(=O)N[C@H](C(=O)O)c4cc(O)cc(O)c4-c4cc3ccc4O)[C@H](O)c3ccc(c(Cl)c3)Oc3cc2cc(c3O[C@@H]2O[C@H](CO)[C@@H](O)[C@H](O)[C@H]2O[C@H]2C[C@](C)(N)[C@H](O)[C@H](C)O2)Oc2ccc(cc2Cl)[C@H]1O` [VANCOMYCIN] yielded an MIC50 [1] of 0.5 µg/mL (≈ 0.345 µM), an MIC90 [1] of 1 µg/mL (≈ 0.69 µM) and an MIC50 [2] of 1 µg/mL (≈ 0.69 µM). It also gave an MIC90 [2] of 64 µg/mL (≈ 44.2 µM), an MIC50 [3] of 1 µg/mL (≈ 0.69 µM) and an MIC90 [3] of 4 µg/mL (≈ 2.76 µM). The MIC [4] was 64 µg/mL (≈ 44.2 µM), the MIC50 [4] was 64 µg/mL (≈ 44.2 µM) and the MIC90 [4] was 128 µg/mL (≈ 88.3 µM). The MIC50 [5] was 1 µg/mL (≈ 0.69 µM), the MIC90 [5] was 4 µg/mL (≈ 2.76 µM) and the MIC50 [6] was 1 µg/mL (≈ 0.69 µM). It also gave an MIC90 [6] of 4 µg/mL (≈ 2.76 µM), an MIC50 [7] of 8 µg/mL (≈ 5.52 µM) and an MIC90 [7] of 8 µg/mL (≈ 5.52 µM). The MIC50 [8] was 1 µg/mL (≈ 0.69 µM), the MIC90 [8] was 4 µg/mL (≈ 2.76 µM) and the MIC50 [9] was 1 µg/mL (≈ 0.69 µM). For the same molecule, the MIC90 [9] was 64 µg/mL (≈ 44.2 µM), the MIC50 [10] was 32 µg/mL (≈ 22.1 µM) and the MIC90 [10] was 64 µg/mL (≈ 44.2 µM). The MIC50 [11] was 128 µg/mL (≈ 88.3 µM), the MIC90 [11] was 256 µg/mL (≈ 177 µM) and the MIC50 [12] was 1 µg/mL (≈ 0.69 µM). The MIC90 [12] was 4 µg/mL (≈ 2.76 µM), the MIC50 [13] was 0.5 µg/mL (≈ 0.345 µM) and the MIC90 [13] was 1 µg/mL (≈ 0.69 µM). The MIC [14] was 16 µg/mL (≈ 11 µM), the MIC50 [14] was 16 µg/mL (≈ 11 µM) and the MIC90 [14] was 256 µg/mL (≈ 177 µM). For the same molecule, the MIC50 [15] was 4 µg/mL (≈ 2.76 µM), the MIC90 [15] was 8 µg/mL (≈ 5.52 µM) and the MIC50 [16] was 1 µg/mL (≈ 0.69 µM). The MIC90 [16] was 64 µg/mL (≈ 44.2 µM), the MIC50 [17] was 1 µg/mL (≈ 0.69 µM) and the MIC90 [17] was 64 µg/mL (≈ 44.2 µM). The MIC50 [18] was 1 µg/mL (≈ 0.69 µM), the MIC90 [18] was 4 µg/mL (≈ 2.76 µM) and the MIC50 [19] was 128 µg/mL (≈ 88.3 µM). The MIC90 [19] was 256 µg/mL (≈ 177 µM), the MIC50 [20] was 1 µg/mL (≈ 0.69 µM) and the MIC90 [20] was 64 µg/mL (≈ 44.2 µM). It also gave an MIC50 [21] of 0.5 µg/mL (≈ 0.345 µM), an MIC90 [21] of 1 µg/mL (≈ 0.69 µM) and an MIC50 [22] of 4 µg/mL (≈ 2.76 µM). It also gave an MIC90 [22] of 8 µg/mL (≈ 5.52 µM), an MIC50 [23] of 1 µg/mL (≈ 0.69 µM) and an MIC90 [23] of 4 µg/mL (≈ 2.76 µM). It also gave an MIC50 [24] of 0.5 µg/mL (≈ 0.345 µM), an MIC90 [24] of 1 µg/mL (≈ 0.69 µM) and an MIC50 [25] of 128 µg/mL (≈ 88.3 µM). The MIC90 [25] was 256 µg/mL (≈ 177 µM), the MIC50 [26] was 1 µg/mL (≈ 0.69 µM) and the MIC90 [26] was 64 µg/mL (≈ 44.2 µM). It also gave an MIC [27] of 64 µg/mL (≈ 44.2 µM), an MIC50 [27] of 64 µg/mL (≈ 44.2 µM) and an MIC90 [27] of 128 µg/mL (≈ 88.3 µM). The MIC50 [28] was 1 µg/mL (≈ 0.69 µM), the MIC90 [28] was 64 µg/mL (≈ 44.2 µM) and the MIC50 [29] was 0.5 µg/mL (≈ 0.345 µM). For the same molecule, the MIC90 [29] was 1 µg/mL (≈ 0.69 µM), the MIC50 [30] was greater than 1020 µg/mL and the MIC90 [30] was greater than 1020 µg/mL. It also gave an MIC50 [31] of 1 µg/mL (≈ 0.69 µM), an MIC90 [31] of 4 µg/mL (≈ 2.76 µM) and an MIC50 [32] of 1 µg/mL (≈ 0.69 µM). The MIC90 [32] was 4 µg/mL (≈ 2.76 µM), the MIC50 [33] was 0.5 µg/mL (≈ 0.345 µM) and the MIC90 [33] was 1 µg/mL (≈ 0.69 µM). It also gave an MIC50 [34] of 1 µg/mL (≈ 0.69 µM), an MIC90 [34] of 64 µg/mL (≈ 44.2 µM) and an MIC50 [35] of 1 µg/mL (≈ 0.69 µM). For the same molecule, the MIC90 [35] was 64 µg/mL (≈ 44.2 µM), the MIC50 [36] was 1 µg/mL (≈ 0.69 µM) and the MIC90 [36] was 64 µg/mL (≈ 44.2 µM). For the same molecule, the MIC [37] was 64 µg/mL, the MIC50 [37] was 64 µg/mL and the MIC90 [37] was 128 µg/mL. The MIC50 [38] was 128 µg/mL (≈ 88.3 µM), the MIC90 [38] was 128 µg/mL (≈ 88.3 µM) and the MIC50 [39] was 1 µg/mL (≈ 0.69 µM). For the same molecule, the MIC90 [39] was 4 µg/mL (≈ 2.76 µM), the MIC50 [40] was greater than 1020 µg/mL and the MIC90 [40] was greater than 1020 µg/mL. The MIC50 [41] was 256 µg/mL (≈ 177 µM), the MIC90 [41] was greater than 1020 µg/mL and the MIC50 [42] was 0.5 µg/mL (≈ 0.345 µM). For the same molecule, the MIC90 [42] was 1 µg/mL (≈ 0.69 µM), the MIC50 [43] was 1 µg/mL (≈ 0.69 µM) and the MIC90 [43] was 64 µg/mL (≈ 44.2 µM). For the same molecule, the MIC50 [44] was 1 µg/mL (≈ 0.69 µM), the MIC90 [44] was 4 µg/mL (≈ 2.76 µM) and the MIC50 [45] was greater than 1020 µg/mL. It also gave an MIC90 [45] greater than 1020 µg/mL, an MIC50 [46] of 128 µg/mL (≈ 88.3 µM) and an MIC90 [46] of 128 µg/mL (≈ 88.3 µM). The MIC50 [47] was 1 µg/mL (≈ 0.69 µM) and the MIC90 [47] was 64 µg/mL (≈ 44.2 µM).

Source: ChEMBL document CHEMBL1275577, “Study of the in vitro activities of rifaximin and comparator agents against 536 anaerobic intestinal bacteria from the perspective of potential utility in pathology involving bowel flora” (Antimicrob Agents Chemother, 2009)
